Tested on: 6-OHDA lesioned mice
Test: Unilateral striatal 6-OHDA mouse model, neurorescue experiment
Format: in vivo, C57BL/6 mice
Settings: 10 mg/kg daily for 14 days from 3 days post-lesion
Protocol: Young adult (9-week old, 25 grams) male C57BL/6 mice were purchased from Charles River Laboratories (Montréal, QC, Canada). Animals were housed 4 per cage under standard conditions with free access to food and water, randomized and handled under the same conditions by one investigator. All experiments were performed in accordance with the Canadian Council on Animal Care and were approved by the Institutional Committee of the Centre Hospitalier de l'Université Laval (CHUL). Throughout the experiment, the health status of all mice included in the study was closely monitored for weight loss or other signs of health-related issues. All efforts were made to minimize animal pain and discomfort.
This protocol was based on the unilateral stereotaxic intra-striatal injection of 6-hydroxydopamine (6-OHDA). Intrastriatal administration of 6-OHDA creates a progressive and retrograde degenerative changes in DA neurons of the substantia nigra (Bjorklund et al., 1997; Costantini et al., 2001). Mice were anaesthetized using isoflurane and placed onto a stereotactic frame adapted for mice. 6-OHDA was dissolved at a concentration of 2 μg/μl in 0.9% saline and 0.02% ascorbic acid and 2 μl was injected in the right striatum at a rate of 0.5 μl/min. The needle was left in place for 3 min after the injection before retraction. The injection was performed using an Hamilton syringe according to the stereotaxic co-ordinates: AP: +0.04 cm, ML: −0.18 cm, DV: −0.31 cm (corresponding to the atlas of Allan P. 2008).
To serve as controls, other mice were subjected to the same surgical procedures, but only 2 μl of solvent (0.9% saline and 0.02% ascorbic acid) was injected in the same coordinates. […]
The effects of cystamine on the 6-OHDA toxicity were studied in the following experimental groups: Group I, Sham+Saline; Group II, 6-OHDA+Saline; Group III; Sham+Cystamine; Group IV, 6-OHDA+Cystamine. In total, 40 mice (n=10 per group) were utilized for each experiment, monitored daily for weight variation, and ultimately sacrificed by perfusion 24 hrs after the last cystamine (or vehicle) injection. […]
Catecholamine quantification by HPLC, TH immunohistochemistry and in situ hybridization for Nurr1 and DAT were conducted as described in Example 1.
Levels of autoradiographic labelling were quantified by computerized densitometry. […] Optical density of the autoradiograms was translated in μCi/g of tissue using ^14C radioactivity standards (ARC 146-^14C standards, American Radiolabelled Chemicals Inc., St. Louis, Mo.). Nurr1 and DAT mRNA levels were measured in the substantia nigra compacta (SNc) using similar antero-posterior levels for all sections. […]

NCCSSCCN [cystamine, Cystamine]
DAT mRNA levels in the SNpc (densitometry): same pattern as observed for the TH staining
Nurr1 mRNA levels in the SNpc (densitometry): same pattern as observed for the TH staining
striatal DA content by HPLC (vs control mice): significantly decreased levels of DA only in 6-OHDA mice treated with saline
decrease in the total number of TH-positive neurons in the SNpc (6-OHDA+cystamine vs sham+cystamine): 27%
